{
  "source": "patent US11707447B1",
  "key": {"HTR1B (5-HTR1B)": {"biological_target": "HTR1B (5-HTR1B) (Homo sapiens, UniProt P28222)", "sequence (P28222 whole entry)": "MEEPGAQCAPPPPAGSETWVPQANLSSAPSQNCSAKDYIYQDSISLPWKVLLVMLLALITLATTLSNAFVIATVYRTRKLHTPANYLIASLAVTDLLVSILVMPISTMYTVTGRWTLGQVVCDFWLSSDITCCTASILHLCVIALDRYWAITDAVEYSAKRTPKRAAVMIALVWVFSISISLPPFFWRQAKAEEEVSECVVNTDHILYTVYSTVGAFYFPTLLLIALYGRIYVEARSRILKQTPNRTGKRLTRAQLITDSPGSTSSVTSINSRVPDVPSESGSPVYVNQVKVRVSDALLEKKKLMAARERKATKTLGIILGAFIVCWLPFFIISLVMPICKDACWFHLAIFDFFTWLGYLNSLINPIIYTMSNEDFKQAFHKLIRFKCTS", "experiment": "SAFETYscan EFC-based cAMP secondary messenger assay (agonist/antagonist mode)"}, "HepG2 cells": {"test_system": "HepG2 cells", "experiment": "PrestoBlue cell viability assay", "format": "cell-based, human", "conditions": "48 h incubation", "excerpt": "Non-treated cells were assigned 100% viability. Bar graphs show the mean+/−SD, n=3."}, "SERT": {"biological_target": "SERT (Homo sapiens, UniProt P31645)", "sequence (P31645 whole entry)": "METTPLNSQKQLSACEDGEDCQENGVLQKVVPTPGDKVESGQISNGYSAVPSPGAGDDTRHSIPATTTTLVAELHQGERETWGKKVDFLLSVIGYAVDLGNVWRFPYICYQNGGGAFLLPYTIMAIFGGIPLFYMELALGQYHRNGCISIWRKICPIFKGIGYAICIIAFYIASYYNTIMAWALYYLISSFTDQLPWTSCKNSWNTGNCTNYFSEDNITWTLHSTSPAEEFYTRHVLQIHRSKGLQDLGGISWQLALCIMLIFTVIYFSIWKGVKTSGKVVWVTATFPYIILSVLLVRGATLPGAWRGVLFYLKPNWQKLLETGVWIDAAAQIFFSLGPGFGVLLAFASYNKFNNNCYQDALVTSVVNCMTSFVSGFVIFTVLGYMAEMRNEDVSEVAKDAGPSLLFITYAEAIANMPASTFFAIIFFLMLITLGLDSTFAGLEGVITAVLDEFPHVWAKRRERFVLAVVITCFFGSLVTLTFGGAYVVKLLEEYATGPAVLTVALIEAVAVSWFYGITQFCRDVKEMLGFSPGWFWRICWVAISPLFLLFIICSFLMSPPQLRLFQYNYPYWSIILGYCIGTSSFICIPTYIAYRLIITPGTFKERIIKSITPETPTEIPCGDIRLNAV", "experiment": "cell-based", "conditions": "blocker mode"}, "MAO-A": {"biological_target": "T1, MAO-A (Homo sapiens, UniProt P21397)", "T1 construct": "purchased Sigma", "experiment": "MAO-A enzyme assay (kynuramine substrate)", "format": "biochemical"}, "NMDAR": {"biological_target": "NMDAR (Homo sapiens, UniProt Q05586+Q13224)", "sequence (Q13224 27-1484, other chains not shown)": "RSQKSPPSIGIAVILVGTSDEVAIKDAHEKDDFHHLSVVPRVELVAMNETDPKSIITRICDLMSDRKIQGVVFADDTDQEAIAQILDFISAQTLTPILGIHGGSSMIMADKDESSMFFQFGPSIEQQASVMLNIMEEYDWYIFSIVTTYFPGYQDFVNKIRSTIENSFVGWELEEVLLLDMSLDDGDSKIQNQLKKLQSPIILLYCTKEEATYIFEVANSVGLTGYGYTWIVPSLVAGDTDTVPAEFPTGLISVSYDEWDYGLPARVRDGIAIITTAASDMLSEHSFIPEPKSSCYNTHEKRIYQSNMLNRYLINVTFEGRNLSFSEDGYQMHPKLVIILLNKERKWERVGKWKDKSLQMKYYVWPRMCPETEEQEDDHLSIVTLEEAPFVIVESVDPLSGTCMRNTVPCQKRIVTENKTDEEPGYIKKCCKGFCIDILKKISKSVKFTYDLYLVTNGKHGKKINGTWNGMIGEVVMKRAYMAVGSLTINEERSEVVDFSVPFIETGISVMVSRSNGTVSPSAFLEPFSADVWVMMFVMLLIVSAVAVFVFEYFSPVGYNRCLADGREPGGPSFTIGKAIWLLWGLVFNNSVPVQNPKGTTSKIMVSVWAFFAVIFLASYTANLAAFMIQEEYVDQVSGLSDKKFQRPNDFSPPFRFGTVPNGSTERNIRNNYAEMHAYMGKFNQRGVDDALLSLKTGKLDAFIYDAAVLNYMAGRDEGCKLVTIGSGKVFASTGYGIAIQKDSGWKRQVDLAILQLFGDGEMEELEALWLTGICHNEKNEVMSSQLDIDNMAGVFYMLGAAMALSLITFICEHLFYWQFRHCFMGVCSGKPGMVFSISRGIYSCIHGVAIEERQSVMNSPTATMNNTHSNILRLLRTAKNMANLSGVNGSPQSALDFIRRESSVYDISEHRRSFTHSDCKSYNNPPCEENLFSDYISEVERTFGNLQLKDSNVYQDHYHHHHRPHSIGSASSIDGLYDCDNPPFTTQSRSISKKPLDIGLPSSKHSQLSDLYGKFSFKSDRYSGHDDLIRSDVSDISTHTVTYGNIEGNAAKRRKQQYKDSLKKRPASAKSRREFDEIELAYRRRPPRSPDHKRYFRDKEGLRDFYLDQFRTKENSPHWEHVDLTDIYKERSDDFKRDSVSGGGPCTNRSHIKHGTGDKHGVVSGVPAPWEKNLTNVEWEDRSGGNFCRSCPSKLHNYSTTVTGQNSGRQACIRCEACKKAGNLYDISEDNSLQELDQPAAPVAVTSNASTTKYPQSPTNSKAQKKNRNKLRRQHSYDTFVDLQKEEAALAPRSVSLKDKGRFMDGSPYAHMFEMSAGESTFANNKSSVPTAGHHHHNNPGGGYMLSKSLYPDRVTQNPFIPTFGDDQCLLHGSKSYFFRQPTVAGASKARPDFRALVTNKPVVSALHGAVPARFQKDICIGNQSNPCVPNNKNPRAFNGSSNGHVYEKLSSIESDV", "experiment": "SAFETYscan ion channel assay, FLIPR membrane potential (opener/blocker)", "format": "cell-based"}, "CNR1": {"biological_target": "CNR1 (Homo sapiens, UniProt P21554)", "sequence (P21554 whole entry)": "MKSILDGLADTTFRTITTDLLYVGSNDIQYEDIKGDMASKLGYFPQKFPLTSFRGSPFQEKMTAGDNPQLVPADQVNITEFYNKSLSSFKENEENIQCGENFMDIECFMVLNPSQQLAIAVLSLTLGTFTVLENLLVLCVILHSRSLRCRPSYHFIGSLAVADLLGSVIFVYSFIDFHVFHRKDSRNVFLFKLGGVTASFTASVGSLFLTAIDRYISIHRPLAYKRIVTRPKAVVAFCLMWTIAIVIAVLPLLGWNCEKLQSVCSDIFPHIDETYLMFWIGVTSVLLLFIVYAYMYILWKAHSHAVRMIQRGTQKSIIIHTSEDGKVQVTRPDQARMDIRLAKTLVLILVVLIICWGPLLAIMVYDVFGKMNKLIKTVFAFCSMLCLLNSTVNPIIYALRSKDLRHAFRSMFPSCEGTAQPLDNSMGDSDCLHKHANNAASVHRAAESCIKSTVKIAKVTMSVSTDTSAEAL", "experiment": "SAFETYscan EFC-based cAMP secondary messenger assay (agonist/antagonist mode)"}, "DRD1": {"biological_target": "DRD1 (Homo sapiens, UniProt P21728)", "sequence (P21728 whole entry)": "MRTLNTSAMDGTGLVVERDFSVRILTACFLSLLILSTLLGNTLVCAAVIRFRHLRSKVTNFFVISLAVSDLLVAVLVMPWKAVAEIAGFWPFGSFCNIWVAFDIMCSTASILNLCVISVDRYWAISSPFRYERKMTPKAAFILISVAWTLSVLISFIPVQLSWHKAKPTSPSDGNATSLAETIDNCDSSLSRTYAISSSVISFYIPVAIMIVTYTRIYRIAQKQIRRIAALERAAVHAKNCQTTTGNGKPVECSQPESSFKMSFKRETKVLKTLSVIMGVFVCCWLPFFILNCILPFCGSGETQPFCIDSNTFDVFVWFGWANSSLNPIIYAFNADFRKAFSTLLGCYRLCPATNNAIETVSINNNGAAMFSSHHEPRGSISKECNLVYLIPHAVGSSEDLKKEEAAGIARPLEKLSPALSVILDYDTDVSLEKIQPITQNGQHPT", "experiment": "SAFETYscan EFC-based cAMP secondary messenger assay (agonist/antagonist mode)", "format": "cell-based"}, "HTR3A (5-HT3A)": {"biological_target": "HTR3A (5-HT3A) (Homo sapiens, UniProt P46098)", "sequence (P46098 24-478)": "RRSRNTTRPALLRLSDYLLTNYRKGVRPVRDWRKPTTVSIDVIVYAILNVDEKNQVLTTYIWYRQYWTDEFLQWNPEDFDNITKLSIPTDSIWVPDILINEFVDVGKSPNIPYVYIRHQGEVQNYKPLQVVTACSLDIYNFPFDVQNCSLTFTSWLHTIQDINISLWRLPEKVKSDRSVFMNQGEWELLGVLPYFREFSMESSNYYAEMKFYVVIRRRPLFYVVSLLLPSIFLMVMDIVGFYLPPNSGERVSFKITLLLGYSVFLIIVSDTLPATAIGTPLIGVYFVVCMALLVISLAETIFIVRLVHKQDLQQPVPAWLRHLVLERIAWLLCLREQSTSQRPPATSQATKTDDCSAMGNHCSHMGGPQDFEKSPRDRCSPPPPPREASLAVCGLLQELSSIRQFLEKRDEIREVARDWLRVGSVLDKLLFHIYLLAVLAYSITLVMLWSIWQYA", "experiment": "SAFETYscan ion channel assay, FLIPR membrane potential (opener/blocker)", "format": "cell-based"}, "AVPR1A": {"biological_target": "AVPR1A (Homo sapiens, UniProt P37288)", "sequence (P37288 whole entry)": "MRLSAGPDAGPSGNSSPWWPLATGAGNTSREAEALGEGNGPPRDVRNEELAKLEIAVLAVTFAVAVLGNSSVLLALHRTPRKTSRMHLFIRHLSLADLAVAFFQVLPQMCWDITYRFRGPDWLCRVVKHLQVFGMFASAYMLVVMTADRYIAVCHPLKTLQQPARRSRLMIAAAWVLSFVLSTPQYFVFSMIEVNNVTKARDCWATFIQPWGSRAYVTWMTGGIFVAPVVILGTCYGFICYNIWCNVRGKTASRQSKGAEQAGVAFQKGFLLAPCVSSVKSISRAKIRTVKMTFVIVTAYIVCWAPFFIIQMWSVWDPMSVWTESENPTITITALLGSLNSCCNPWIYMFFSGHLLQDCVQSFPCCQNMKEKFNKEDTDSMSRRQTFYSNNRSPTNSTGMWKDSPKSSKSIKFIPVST", "experiment": "SAFETYscan calcium secondary messenger assay (agonist/antagonist mode)", "format": "cell-based"}, "5-HT1A receptor": {"biological_target": "T2, 5-HT1A receptor (Homo sapiens, UniProt P08908)", "T2 construct": "host or cells: CHO-K1 (co-expressing Ga15)", "T2 sequence (P08908 1-422)": "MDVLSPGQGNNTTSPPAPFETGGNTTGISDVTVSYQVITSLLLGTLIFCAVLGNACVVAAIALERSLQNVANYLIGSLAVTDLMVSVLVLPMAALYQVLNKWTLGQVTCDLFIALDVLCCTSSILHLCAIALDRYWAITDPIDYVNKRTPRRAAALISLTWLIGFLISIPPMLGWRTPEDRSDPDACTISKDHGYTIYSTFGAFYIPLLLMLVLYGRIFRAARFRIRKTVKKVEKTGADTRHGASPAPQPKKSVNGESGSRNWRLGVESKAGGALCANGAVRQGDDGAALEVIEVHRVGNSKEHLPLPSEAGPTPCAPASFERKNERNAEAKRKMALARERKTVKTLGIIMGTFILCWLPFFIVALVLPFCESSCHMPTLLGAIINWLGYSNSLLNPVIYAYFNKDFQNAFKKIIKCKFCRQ", "experiment": "cAMP-Glo assay in +5-HT1A / -5-HT1A CHO-K1 cells", "format": "cell-based"}, "[1]": {"experiment": "In vitro metabolic stability / psilocin release, human AB serum", "format": "in vitro ADME", "excerpt": "A fundamental evaluation in drug development is the assessment of absorption, distribution, metabolism, excretion, and pharmacokinetics (ADME/PK) (Eddershaw et al., 2000, Drug Discovery Today 5(9): 409-414). […] Drug stability upon exposure to human liver microsomes and liver S9 cellular fractions is a common in vitro assay to approximate in vivo, liver-based drug metabolism (Richardson et al., 2016 Drug Metabolism Letters 10:83-90). First-pass metabolism is also often approximated in vitro using intestinal microsome and cellular S9 fractions (Hatley et al., 2017, Biopharmaceuticals & Drug Disposition, 38(2):155-160). Further, it is well known that human serum, and particularly circulating serum esterases can contribute to systemic drug metabolism (Williams, F M 1987, Pharmacology and Therapeutics, 34:99-109). Many pharmacological agents are classified as prodrugs, as they undergo metabolic transformation in vivo upon administration to release the active drug compound into the systemic compartment (Zawilska J B, et al. 2013, Pharmacological Reports, 65:1-14). Psilocybin, a serotonergic psychedelic agent, is well known prodrug that is metabolized into the psychoactive product, psilocin (Dinis-Oliveira, R J 2017, Drug Metabolism Reviews, 49(1):84-91). To evaluate the capacity of test molecules to similarly serve as prodrugs of psilocin, time-dependent, metabolic stability assays using human AB serum, human intestinal microsomes (HIM), human intestinal S9 fractions (HIS9), human liver microsomes (HLM), human liver S9 fractions (HLS9), human alkaline phosphatase, and porcine esterase were performed. […] Liquid chromatography coupled mass spectrometry (LC-MS) was employed to track the conversion of the test molecules into psilocin. All intestinal and liver fractions and NADPH RapidStart reagent was purchased from Sekisui/XenoTech. Human AB serum was purchased from Sigma. […] Supernatants were analyzed for the presence of candidate prodrugs (parent molecule) and psilocin (the predicted metabolite) using Orbitrap LC-MS (Thermo Scientific) using previously described methods (Menéndez-Perdomo et al., 2021, J. Mass Spectrom., 56: e4683). […] Assay concentrations (μM) of both parent ‘prodrug’ molecule and psilocin metabolite, as quantified through LC-MS using routine standard curve procedures, were plotted as functions of assay time (minutes). The metabolism rate (T1/2) was determined from the metabolism curve plot using the one phase decay feature of GraphPad PRISM software (Version 9.2.0). The quantity of parent prodrug at time zero was set as 100%. […]"}, "in vitro": {"experiment": "in vitro", "format": "in vitro ADME, human", "conditions": "for half-life: human, 37° C., read-out: half-life (T1/2)", "excerpt": "A fundamental evaluation in drug development is the assessment of absorption, distribution, metabolism, excretion, and pharmacokinetics (ADME/PK) (Eddershaw et al., 2000, Drug Discovery Today 5(9): 409-414). […] Drug stability upon exposure to human liver microsomes and liver S9 cellular fractions is a common in vitro assay to approximate in vivo, liver-based drug metabolism (Richardson et al., 2016 Drug Metabolism Letters 10:83-90). First-pass metabolism is also often approximated in vitro using intestinal microsome and cellular S9 fractions (Hatley et al., 2017, Biopharmaceuticals & Drug Disposition, 38(2):155-160). Further, it is well known that human serum, and particularly circulating serum esterases can contribute to systemic drug metabolism (Williams, F M 1987, Pharmacology and Therapeutics, 34:99-109). Many pharmacological agents are classified as prodrugs, as they undergo metabolic transformation in vivo upon administration to release the active drug compound into the systemic compartment (Zawilska J B, et al. 2013, Pharmacological Reports, 65:1-14). Psilocybin, a serotonergic psychedelic agent, is well known prodrug that is metabolized into the psychoactive product, psilocin (Dinis-Oliveira, R J 2017, Drug Metabolism Reviews, 49(1):84-91). To evaluate the capacity of test molecules to similarly serve as prodrugs of psilocin, time-dependent, metabolic stability assays using human AB serum, human intestinal microsomes (HIM), human intestinal S9 fractions (HIS9), human liver microsomes (HLM), human liver S9 fractions (HLS9), human alkaline phosphatase, and porcine esterase were performed. […] Liquid chromatography coupled mass spectrometry (LC-MS) was employed to track the conversion of the test molecules into psilocin. All intestinal and liver fractions and NADPH RapidStart reagent was purchased from Sekisui/XenoTech. Human AB serum was purchased from Sigma. For intestine and liver metabolism assays, 2.5 μM candidate compounds were incubated in 400 μg/ml of each cellular fraction (HLM, HLS9, HIM, or HIS9) in 50 mM potassium phosphate buffer (pH 7.4) containing 3 mM MgCl2 and 1 mM EDTA supplemented with NADPH RapidStart at 37° C. Samples were taken at the start of the assay, and at every 20 minutes for 2 hours. Time-point samples were precipitated with 1:1 volume of acetonitrile to quench the reaction before centrifugation at 4000×g for 20 minutes. Supernatants were analyzed for the presence of candidate prodrugs (parent molecule) and psilocin (the predicted metabolite) using Orbitrap LC-MS (Thermo Scientific) using previously described methods (Menéndez-Perdomo et al., 2021, J. Mass Spectrom., 56: e4683). The serum assays were carried out in 10% human AB serum in 50 mM potassium phosphate buffer (pH 7.4) containing 3 mM MgCl2 and 1 mM EDTA. Bovine alkaline phosphatase assays were carried out using one unit of purified enzyme in 50 mM potassium phosphate buffer (pH 7.4) containing 3 mM MgCl2 and 1 mM EDTA. Porcine esterase assays were carried out using one unit of purified enzyme in 50 mM potassium phosphate buffer (pH 7.4) containing 3 mM MgCl2 and 1 mM EDTA. Assay concentrations (μM) of both parent ‘prodrug’ molecule and psilocin metabolite, as quantified through LC-MS using routine standard curve procedures, were plotted as functions of assay time (minutes). The metabolism rate (T1/2) was determined from the metabolism curve plot using the one phase decay feature of GraphPad PRISM software (Version 9.2.0). The quantity of parent prodrug at time zero was set as 100%.\nPositive controls were first tested to ensure that assays were functioning properly."}, "ADRA1A": {"biological_target": "ADRA1A (Homo sapiens, UniProt P35348)", "sequence (P35348 whole entry)": "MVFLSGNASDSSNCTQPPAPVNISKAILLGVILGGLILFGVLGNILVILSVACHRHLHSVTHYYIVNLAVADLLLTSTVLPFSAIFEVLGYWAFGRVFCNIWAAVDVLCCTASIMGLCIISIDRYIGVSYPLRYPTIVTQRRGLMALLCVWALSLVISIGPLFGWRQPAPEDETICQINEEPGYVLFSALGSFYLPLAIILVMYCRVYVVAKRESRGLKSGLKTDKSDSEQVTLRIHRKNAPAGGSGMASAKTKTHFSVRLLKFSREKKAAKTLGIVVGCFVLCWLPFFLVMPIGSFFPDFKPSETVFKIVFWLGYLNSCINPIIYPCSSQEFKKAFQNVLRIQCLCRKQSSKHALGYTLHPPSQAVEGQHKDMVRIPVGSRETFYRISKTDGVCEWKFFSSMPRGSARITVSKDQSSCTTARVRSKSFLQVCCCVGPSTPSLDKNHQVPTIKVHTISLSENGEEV", "experiment": "SAFETYscan calcium secondary messenger assay (agonist/antagonist mode)", "format": "cell-based"}},
  "note": "Entries after “also recorded” stand apart in the source; their conditions may differ.",
  "data": [
    {"smiles": "CN(C)CCc1c[nH]c2cccc(OC(=O)SCc3ccccc3)c12", "note": "[E(VI)]", "values": [
      {"measurement": "EC50", "setting": "HTR1B (5-HTR1B)", "result": 0.236, "unit": "µM"},
      {"measurement": "IC50", "setting": "HTR1B (5-HTR1B)", "result": "> 100", "unit": "µM"},
      {"measurement": "CD50 (cytotoxicity, cell viability)", "setting": "HepG2 cells", "result": 74.5, "unit": "µM"},
      {"measurement": "IC50", "setting": "SERT", "result": 9.06, "unit": "µM"},
      {"measurement": "IC50", "setting": "MAO-A", "result": "> 100", "unit": "µM"},
      {"measurement": "EC50", "setting": "NMDAR", "result": "> 100", "unit": "µM"},
      {"measurement": "IC50", "setting": "NMDAR", "result": 15, "unit": "µM"},
      {"measurement": "EC50", "setting": "CNR1", "result": "> 100", "unit": "µM"},
      {"measurement": "IC50", "setting": "CNR1", "result": 97, "unit": "µM"},
      {"measurement": "EC50", "setting": "DRD1", "result": "> 100", "unit": "µM"},
      {"measurement": "IC50", "setting": "DRD1", "result": 7.11, "unit": "µM"},
      {"measurement": "EC50", "setting": "HTR3A (5-HT3A)", "result": "> 100", "unit": "µM"},
      {"measurement": "IC50", "setting": "HTR3A (5-HT3A)", "result": 1.87, "unit": "µM"},
      {"measurement": "EC50", "setting": "AVPR1A", "result": "> 100", "unit": "µM"},
      {"measurement": "IC50", "setting": "AVPR1A", "result": "> 100", "unit": "µM"},
      {"measurement": "EC50 at 5-HT1A", "setting": "5-HT1A receptor; cAMP assay, forskolin-stimulated +5-HT1A cells", "result": "neither molecule engaged 5-HT1A with sufficient potency to calculate an EC50 value"},
      {"measurement": "cAMP level / 5-HT1A receptor modulation (in words)", "setting": "5-HT1A receptor; forskolin-stimulated +5-HT1A vs -5-HT1A cells, increasing ligand", "result": "mild receptor modulation at higher ligand concentrations"},
      {"measurement": "metabolic stability / conversion to psilocin (in words)", "setting": "[1]; AB serum", "result": "quickly converted to psilocin in liver fractions and serum; also recorded: nearly completely disappears upon in vitro exposure to AB serum, but yields low quantities of psilocin"},
      {"measurement": "half-life", "setting": "[1]; pH 7.4, 10% human AB serum, read-out: half-life (T1/2)", "result": 14, "unit": "min"},
      {"measurement": "metabolic stability / conversion to psilocin (in words)", "setting": "in vitro; HLM", "result": "quickly converted to psilocin in liver fractions and serum"},
      {"measurement": "metabolic stability / conversion to psilocin (in words)", "setting": "in vitro; HLS9", "result": "quickly converted to psilocin in liver fractions and serum"},
      {"measurement": "half-life", "setting": "in vitro; microsomes, pH 7.4, HLM, 2.5 μM compound", "result": 6, "unit": "min"},
      {"measurement": "half-life", "setting": "in vitro; s9, pH 7.4, HLS9, 2.5 μM compound", "result": 5, "unit": "min"},
      {"measurement": "EC50", "setting": "ADRA1A", "result": "> 100", "unit": "µM"},
      {"measurement": "IC50", "setting": "ADRA1A", "result": 1.09, "unit": "µM"}
    ]}
  ]
}
